Laboratory results as given in patent US5091386A, “7-substituted derivatives of 3,5-dihydroxyhept-6-ynoic acids and corresponding lactones and their use as hypercholeserolemics” (Hoechst Aktiengesellschaft, priority 1988, dated 1992).

Experiments:
[1] = target: T1, HMG-CoA reductase (Rattus norvegicus, UniProt P51639); assay: HMG-CoA reductase activity in enzyme preparations (solubilized enzyme from liver microsomes of rats); assay type: biochemical; conditions: (SmR) 14C-HMG-CoA substrate
T1 construct: solubilized enzyme preparations from liver microsomes of rats; from tissue; host or cells: rat liver microsomes (solubilized), rats induced with cholestyramine
T1 sequence (P51639 1-887): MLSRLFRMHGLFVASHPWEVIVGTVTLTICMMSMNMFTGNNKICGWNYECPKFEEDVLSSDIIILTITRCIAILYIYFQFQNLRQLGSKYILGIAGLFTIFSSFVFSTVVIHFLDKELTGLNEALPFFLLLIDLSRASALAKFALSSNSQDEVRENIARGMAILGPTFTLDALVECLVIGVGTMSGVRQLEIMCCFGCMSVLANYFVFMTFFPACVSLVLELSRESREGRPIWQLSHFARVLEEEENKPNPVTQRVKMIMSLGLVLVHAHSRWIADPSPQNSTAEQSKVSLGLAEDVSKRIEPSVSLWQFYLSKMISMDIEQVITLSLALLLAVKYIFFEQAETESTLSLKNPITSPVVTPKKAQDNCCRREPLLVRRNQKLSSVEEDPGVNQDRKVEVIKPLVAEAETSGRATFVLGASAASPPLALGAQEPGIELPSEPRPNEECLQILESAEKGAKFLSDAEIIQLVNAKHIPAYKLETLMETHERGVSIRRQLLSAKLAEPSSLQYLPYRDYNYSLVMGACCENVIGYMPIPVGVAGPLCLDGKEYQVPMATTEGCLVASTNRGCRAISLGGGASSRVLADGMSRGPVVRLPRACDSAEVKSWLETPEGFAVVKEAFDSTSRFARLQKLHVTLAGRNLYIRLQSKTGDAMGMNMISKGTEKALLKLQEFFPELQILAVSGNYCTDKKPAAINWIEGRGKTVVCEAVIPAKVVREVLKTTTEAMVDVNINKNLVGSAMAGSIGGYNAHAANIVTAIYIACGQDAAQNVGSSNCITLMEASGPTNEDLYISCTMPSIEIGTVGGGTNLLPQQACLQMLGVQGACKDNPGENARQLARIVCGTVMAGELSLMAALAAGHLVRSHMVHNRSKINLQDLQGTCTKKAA
Description: The HMG-CoA reductase activity was measured on solubilized enzyme preparations from liver microsomes of rats which had been induced with cholestyramine (®Cuemid) after changing the day/night rhythm. (Sm R) ^14 C-HMG-CoA was used as substrate, and the concentration of NADPH was maintained during the incubation by a regenerating system. ^14 C-mevalonate was separated from the substrate and other products (for example ^14 C-HMG) by column elution, with the elution profile of each individual sample being determined. ^3 H-Mevalonate was not always included because the object was to determine relative data on the inhibitory effect. In each test series the enzyme-free control, the enzyme-containing normal mixture (=100%) and those with added product, final concentration 10^-5 to 10^-9 M, were treated together. Each individual value was formed as the mean of 3 parallel samples. The significance of the differences between means for product-free and product-containing samples was assessed by the t test.
Using the method described above, for example, the following values for the inhibition of HMG-CoA reductase were found for the compounds according to the invention [IC50 /mol/liter denotes the molar concentration of the compound per liter required for a 50% inhibition]. […]

[2] = test system: cholesterol biosynthesis in HEP-G2 cells; assay: Inhibition of cholesterol biosynthesis in HEP-G2 cell cultures; assay type: cell-based; conditions: for IC50: Homo sapiens, HepG2, 14C-cholesterol formed from 14C-precursor; for relative activity (IC50 ref./IC50): vs analogous hept-6E-enoic acid derivative
Description: Monolayers of HEP-G2 cells in lipoprotein-free nutrient medium were preincubated with the appropriate concentrations of the test substances for a defined time (for example 1 hour) and, after addition of the labeled precursor, for example sodium ^14 C-acetate, the incubation was continued (for example for 3 hours). After addition of an internal standard (^3 H-cholesterol) a portion of the cells was subjected to alkaline hydrolysis. The lipids from the hydrolyzed cells were extracted with chloroform/methanol. This lipid mixture was, after addition of carrier cholesterol, subjected to preparative thin-layer chromatography, the cholesterol band was visualized with iodine vapor and then isolated, and the amount of ^14 C-cholesterol formed from the ^14 C-precursor was determined by scintigraphy. Cell protein was determined in an aliquot of the cells so that it is possible to calculate the amount of ^14 C-cholesterol formed in unit time per mg of cell protein. The inhibitory effect of the particular test product on cholesterol biosynthesis by HEP-G2 cell cultures emerged by comparison of this figure with the amount of ^14 C-cholesterol formed per mg of cell protein and unit time in a culture treated in the same way but free of test substance.
Testing of substances for inhibition of cholesterol biosynthesis in confluent cell cultures (monolayers) of HEP-G2 cells [drawing 17]
Using the method described above, for example the following figures for the inhibition of cholesterol biosynthesis (in HEP-G2 cells) were found for the compounds according to the invention (the IC50 /mol is that concentration of the compound which brings about 50% inhibition of cholesterol biosynthesis). IC50 values were determined for the compounds according to the invention as well as for identically substituted 3,5-dihydroxyhept6E-enoic acid derivatives (IC50 ref.). The quotient IC50 ref./IC50 yielded the relative activity of the compounds according to the invention. […] This corresponds to a relative activity of 1.6 based on the analogous hept-6E-enoic acid derivative.

IC50 [1]	SMILES	IC50 [2]	relative activity (IC50 ref./IC50) [2]
3 nM	CC(C)c1nc(-c2ccccc2)cc(-c2ccc(F)cc2)c1C#C[C@@H](O)C[C@@H](O)CC(=O)O (relative stereo) [Example 7a, sodium 3RS, 5SR-dihydroxy-7-(4-(4-fluorophenyl)-2-(1-methylethyl)-6-phenylpyridin-3-yl)hept-6-ynoate]		
5.7 nM	CC(C)C(C#C[C@@H](O)C[C@@H](O)CC(=O)O)=C(c1ccc(F)cc1)c1ccc(F)cc1 (relative stereo) [Example 7l]		
	CC(C)c1nc(-c2ccccc2)cc(-c2ccc(F)cc2)c1C#C[C@@H]1C[C@@H](O)CC(=O)O1 (relative stereo) [Example 8a, 6RS-2-(4-(4-Fluorophenyl)-2-(1-methylethyl)-6-phenylpyridin-3-yl)ethynyl-4SR-hydroxy-3,4,5,6-tetrahydro-2H-pyran-2-one]	9 nM	2.67
	CC(C)c1nc(-c2ccc(F)cc2)nc(-c2ccc(F)cc2)c1C#C[C@@H]1C[C@@H](O)CC(=O)O1 (relative stereo) [Example 8e]	11 nM	1.6
